{
  "source": "patent US20210087217A1",
  "about": "“NUCLEOTIDE HEMI-SULFATE SALT FOR THE TREATMENT OF HEPATITIS C VIRUS” (Atea Pharmaceuticals, Inc., priority 2017, published 2021)",
  "key": {"[1]": {"experiment": "Stability under refrigerator conditions (5 ± 3° C.) of Compound 2", "type": "physicochemical", "procedure": "Three conditions were tested: accelerated stability (40 2° C./75±5% RH) over a 6-month time period, ambient stability (25±2° C./60±5% RH) over a 9-month period, and stability under refrigerator conditions (5 3° C.) over a 9-month time period. The results for accelerated stability, ambient stability, and refrigerator conditions are shown in Table 23, Table 24, and Table 25, respectively.\nThe only impurities detected even after 9 months were those from related substance 1 and water."}, "[2]": {"experiment": "Single ascending dose study of Compound 2 in GT1-HCV infected patients (Part B): safety, tolerability, pharmacokinetic", "type": "in vivo, human", "procedure": "Subjects in Part B received a single dose of Compound 2 in the fasting state. Patients were confined to the clinic from Day −1 to Day 6.\nPart B was initiated after the safety (through Day 5) and plasma pharmacokinetic (through 24 h) data review from Cohort 3a in Part A. Available safety data (through Day 5) and pharmacokinetic data (through 24 h) was reviewed for the first cohort in Part B (Cohort 1b) before enrolling subsequent Part B cohorts. Subsequent Part B cohorts were only dosed following review of available safety and pharmacokinetic data from the respective doses in Part A as well as available safety (through Day 5) from the prior Part B cohorts.\nPatients infected with HCV were treatment-naïve, non-cirrhotic GT1-infected subjects with a viral load of ≥5 log10 IU/mL.\nPharmacokinetic of Compound 1 and nucleoside metabolite 1-7 were measured following the single dose of Compound 2. […] Values are reported as mean±SD, except or Tmax where median (range) is reported.\nPlasma exposure of Compound 1 was dose-related while exposure of metabolite 1-7 was dose-proportional."}, "HCV RNA (GT1-HCV)": {"tested_on": "HCV RNA (GT1-HCV)", "experiment": "Plasma HCV RNA reduction in GT1-HCV infected patients (Part B)", "type": "in vivo", "procedure": "Plasma HCV RNA determinations were performed through the use of a validated commercial assay. Baseline was defined as the mean of Day −1 and Day 1 (pre-dose). […] The mean maximum HCV RNA reduction 24 hours post-dose following a single 300 mg dose was 1.7 log10 IU/mL and this compares to a-2 log10 IU/mL reduction after 1 day of 400 mg of sofosbuvir monotherapy in GT1a HCV-infected subjects. The mean maximum HCV RNA reduction 24 hours post-dose following a single 100 mg dose was 0.8 log10 IU/mL. The mean maximum HCV RNA reduction was 2.2 log10 IU/mL following a single 400 mg dose."}, "[3]": {"experiment": "Solubility in biorelevant test medias (water, SGF, FaSSIF, FeSSIF)"}, "[4]": {"settings": "Part B, GT1-HCV infected patients"}},
  "note": "“Also recorded” adds a separate entry of the source. Structures can show the parent of a compound that is named as a salt.",
  "data": [
    {"smiles": "CNc1nc(N)nc2c1ncn2[C@@H]1O[C@H](CO[P@@](=O)(N[C@@H](C)C(=O)OC(C)C)Oc2ccccc2)[C@@H](O)[C@@]1(C)F", "note": "[Compound 2, hemi-sulfate salt of isopropyl((S)-(((2R,3R,4R,5R)-5-(2-amino-6-(methylamino)-9H-purin-9-yl)-4-fluoro-3-hydroxy-4-methyltetrahydrofuran-2-yl)methoxy)(phenoxy)phosphoryl)-L-alaninate]", "values": [
      {"measurement": "Total impurities of related substance 1", "setting": "[1]; 5° C., after 9 months", "result": 0.01, "unit": "%"},
      {"measurement": "Water content", "setting": "[1]; 5° C., after 9 months", "result": 0.32, "unit": "%"},
      {"measurement": "Appearance", "setting": "[1]; 5 ± 3° C., 0 month", "result": "White"},
      {"measurement": "Assay", "setting": "[1]; 5 ± 3° C., 0 month", "result": 98.8, "unit": "%"},
      {"measurement": "IR", "setting": "[1]; 5 ± 3° C., 0 month", "result": "correspond"},
      {"measurement": "Related Substance 1 Any other single impurity", "setting": "[1]; 5 ± 3° C., 0 month", "result": 0.01, "unit": "%"},
      {"measurement": "Related Substance 1 Total Impurities", "setting": "[1]; 5 ± 3° C., 0 month", "result": 0.01, "unit": "%"},
      {"measurement": "Water", "setting": "[1]; 5 ± 3° C., 0 month", "result": 0.45, "unit": "%"},
      {"measurement": "Appearance", "setting": "[1]; 5 ± 3° C., 1st month", "result": "White"},
      {"measurement": "Assay", "setting": "[1]; 5 ± 3° C., 1st month", "result": 101.1, "unit": "%"},
      {"measurement": "Related Substance 1 Any other single impurity", "setting": "[1]; 5 ± 3° C., 1st month", "result": 0.01, "unit": "%"},
      {"measurement": "Related Substance 1 Total Impurities", "setting": "[1]; 5 ± 3° C., 1st month", "result": 0.01, "unit": "%"},
      {"measurement": "Water", "setting": "[1]; 5 ± 3° C., 1st month", "result": 0.19, "unit": "%"},
      {"measurement": "Appearance", "setting": "[1]; 5 ± 3° C., 3rd month", "result": "White"},
      {"measurement": "Assay", "setting": "[1]; 5 ± 3° C., 3rd month", "result": 100.2, "unit": "%"},
      {"measurement": "IR", "setting": "[1]; 5 ± 3° C., 3rd month", "result": "correspond"},
      {"measurement": "Related Substance 1 Any other single impurity", "setting": "[1]; 5 ± 3° C., 3rd month", "result": 0.01, "unit": "%"},
      {"measurement": "Related Substance 1 Impurity B", "setting": "[1]; 5 ± 3° C., 3rd month", "result": 0.01, "unit": "%"},
      {"measurement": "Related Substance 1 Total Impurities", "setting": "[1]; 5 ± 3° C., 3rd month", "result": 0.03, "unit": "%"},
      {"measurement": "Water", "setting": "[1]; 5 ± 3° C., 3rd month", "result": 0.32, "unit": "%"},
      {"measurement": "Appearance", "setting": "[1]; 5 ± 3° C., 6th month", "result": "White"},
      {"measurement": "Assay", "setting": "[1]; 5 ± 3° C., 6th month", "result": 98.6, "unit": "%"},
      {"measurement": "IR", "setting": "[1]; 5 ± 3° C., 6th month", "result": "correspond"},
      {"measurement": "Related Substance 1 Any other single impurity", "setting": "[1]; 5 ± 3° C., 6th month", "result": 0.01, "unit": "%"},
      {"measurement": "Related Substance 1 Total Impurities", "setting": "[1]; 5 ± 3° C., 6th month", "result": 0.03, "unit": "%"},
      {"measurement": "Water", "setting": "[1]; 5 ± 3° C., 6th month", "result": 0.42, "unit": "%"},
      {"measurement": "Appearance", "setting": "[1]; 5 ± 3° C., 9th month", "result": "Off-white"},
      {"measurement": "Assay", "setting": "[1]; 5 ± 3° C., 9th month", "result": 101.4, "unit": "%"},
      {"measurement": "IR", "setting": "[1]; 5 ± 3° C., 9th month", "result": "correspond"},
      {"measurement": "Related Substance 1 Any other single impurity", "setting": "[1]; 5 ± 3° C., 9th month", "result": 0.01, "unit": "%"},
      {"measurement": "Related Substance 1 Total Impurities", "setting": "[1]; 5 ± 3° C., 9th month", "result": 0.01, "unit": "%"},
      {"measurement": "Water", "setting": "[1]; 5 ± 3° C., 9th month", "result": 0.32, "unit": "%"},
      {"measurement": "Stability", "setting": "[1]; refrigerator conditions (5° C.), 9 months", "result": "very chemically stable; also recorded: stable"},
      {"measurement": "Intensity of adverse effects", "setting": "[2]; [4]", "result": "mild to moderate"},
      {"measurement": "Serious adverse events", "setting": "[2]; [4]", "result": "No serious adverse events"},
      {"measurement": "Time within which Compound 1 was absorbed and metabolized", "setting": "[2]; all cohorts from Part B, single dose of Compound 2", "result": "≤ 8", "unit": "h"},
      {"measurement": "Tolerability", "setting": "[2]; hepatitis C infected patients, single oral dose", "result": "well tolerated"},
      {"measurement": "Plasma exposure of Compound 1 versus dose", "setting": "[2]; single dose of Compound 2", "result": "dose-related"},
      {"measurement": "Plasma exposure of metabolite 1-7 versus dose", "setting": "[2]; single dose of Compound 2", "result": "mostly dose-proportional"},
      {"measurement": "Mean maximum HCV RNA reduction", "setting": "HCV RNA (GT1-HCV); 24 hours post-dose, single 100 mg dose", "result": 0.8, "unit": "log10 IU/mL"},
      {"measurement": "Mean maximum HCV RNA reduction", "setting": "HCV RNA (GT1-HCV); 24 hours post-dose, single 300 mg dose", "result": 1.7, "unit": "log10 IU/mL"},
      {"measurement": "Mean maximum HCV RNA reduction", "setting": "HCV RNA (GT1-HCV); single 400 mg dose", "result": 2.2, "unit": "log10 IU/mL"},
      {"measurement": "Appearance in solubility test", "setting": "[3]; FaSSIF", "result": "Turbid"},
      {"measurement": "Solubility descriptive term", "setting": "[3]; FaSSIF", "result": "Slightly"},
      {"measurement": "Appearance in solubility test", "setting": "[3]; FeSSIF", "result": "Turbid"},
      {"measurement": "Solubility descriptive term", "setting": "[3]; FeSSIF", "result": "Slightly"},
      {"measurement": "Appearance in solubility test", "setting": "[3]; SGF", "result": "Turbid"},
      {"measurement": "Solubility descriptive term", "setting": "[3]; SGF", "result": "Soluble"},
      {"measurement": "Appearance in solubility test", "setting": "[3]; Water", "result": "Turbid"},
      {"measurement": "Solubility descriptive term", "setting": "[3]; Water", "result": "Soluble"},
      {"measurement": "Times more soluble in water compared to Compound 1", "setting": "[3]; Water", "result": "up to 43 times"},
      {"measurement": "Times more soluble than Compound 1 under SGF conditions", "setting": "[3]; simulated gastric fluid (SGF)", "result": "over 6 times"}
    ]}
  ]
}
